Experimental data: US9763956B2, “Diagnostic and treatment methods in subjects having or at risk of developing resistance to cancer therapy” (The Broad Institute, Inc., priority 2012, dated 2017)
“Also recorded” adds a separate entry of the source.

How the values were obtained:
[1] = system: Notch inhibitor resistant (persister) T-ALL cell lines; assay: Cell viability / proliferation (Celltiterglo luminescence); format: cell-based, human; settings: compared to naïve cells, viability read on day 6
Procedure: (§1) Notch inhibitor sensitive and resistant T-ALL cell lines were plated in 96 well plates and treated with vehicle, 1 uM GSI and/or increasing concentrations of the bet inhibitor JQ1. Cell viability was determined by measuring luminescence after Celltiterglo® (Promega) addition on day 6. Apoptosis was measured using Caspaseglo® (Promega) on day 4.

[2] = system: Notch inhibitor sensitive (naïve) T-ALL cell lines; assay: as above; format: cell-based, human; settings: JQ1 concentrations that arrest persisters
Procedure: as §1

[3] = system: Notch inhibitor resistant T-ALL cell lines; assay: Apoptosis (Caspaseglo); format: cell-based, human; settings: resistant leukemia cells compared to naïve; day 4
Procedure: as §1

[4] = system: Bcl-2 in GSI resistant leukemia cells; assay: Bcl-2 protein level, Western blot (FIG. 9B); format: cell-based, human; settings: GSI resistant (persister) cells
[5] = system: Bcl-2 in naïve leukemia cells; assay: Bcl-2 protein level, Western blot (FIG. 9B); format: cell-based, human; settings: naïve population
MYC in persister cells = assay: MYC expression, Western blot (FIG. 17A); format: cell-based, human
Procedure: (§2) FIG. 17A is two photographs of western blots show MYC expression in naïve and persister cells after 3 day treatment with 2 μM AKT inhibitor, MK-2206, or 10 nM mTOR inhibitor, Rapamycin. FIG. 17B depicts graphs showing BRD4 binding at the MYC and BCL2 promoters.

MYC in naïve T-ALL cells = assay: MYC expression, Western blot (FIG. 12B, 17A); format: cell-based, human
Procedure: as §2

[6] = Gastrointestinal toxicity, Periodic acid-Schiff (PAS) stain in Balb/c mice; format: in vivo, mouse; settings: JQ1 given in addition to DBZ
Procedure: Balb/c mice were treated with DBZ+JQ1, DBZ, or vehicle alone. Hyperproliferation of globlet cells was measured by Periodic acid-Schiff (PAS) stain.

[7] = system: Notch inhibitor sensitive T-ALL cell lines; assay: Long-term culture of Notch inhibitor sensitive T-ALL cell lines with GSI (resistance modeling); format: cell-based, human
Procedure: Notch inhibitor sensitive T-ALL cell lines were cultured in the presence of 1 μM GSI in vitro. Cells were plated at 0.25×10^6/ml in 20 mL and split every 3-4 days. Cell viability, cell size and cell cycle were measured every 3-4 days. […] GSI-treated cells stopped proliferating between day 14 to 30 of culture, but eventually started proliferating again despite the presence of GSI with subsequent growth rates being equal or similar to untreated cells.

Cc1sc2c(c1C)C(c1ccc(Cl)cc1)=N[C@@H](CC(=O)OC(C)(C)C)c1nnc(C)n1-2 [JQ1]
proliferation / survival of resistant (persister) leukemia cells [1]: decrease in proliferation; also recorded: proliferation arrest
proliferation of naïve T-ALL cells [2]: well tolerated
apoptosis [3]: increase in apoptosis
Bcl-2 protein level / expression [4]: inhibited; also recorded: decreased level of Bcl-2 protein; also recorded: significantly reduced Bcl-2 expression
Bcl-2 expression [5]: little effect
MYC expression (MYC in persister cells): significantly reduced MYC expression
MYC expression (MYC in naïve T-ALL cells): did not alter MYC
intestinal villi architecture (PAS stain) [6]: largely ameliorated villi architecture

CN(C)CC[C@H](CSc1ccccc1)Nc1ccc(S(=O)(=O)NC(=O)c2ccc(N3CCN(Cc4ccccc4-c4ccc(Cl)cc4)CC3)cc2)cc1[N+](=O)[O-] [ABT-737]
proliferation / survival of resistant (persister) leukemia cells [1]: effectively killed persister cells

C[C@H](NC(=O)Cc1cc(F)cc(F)c1)C(=O)N[C@H]1N=C(c2ccccc2)c2ccccc2N(C)C1=O [compound E]
GSI concentration tolerated by persister cells relative to the IC50 [7]: more than 50 fold

Cc1sc2c(c1C)C(c1ccc(Cl)cc1)=N[C@@H](CC(=O)OC(C)(C)C)c1nnc(C)n1-2 (single isomer, unassigned) [JQ1 enantiomer]
proliferation / survival of resistant (persister) leukemia cells [1]: no effect
